The results in this text go back to US20260295053A1, “COMPOUNDS FOR DEGRADATION AND INHIBITION OF KRAS (G12D) PROTEIN” (Shenzhen Ionova Life Science Co., Ltd., priority 2023, published 2026).

In one test the target is T1, KRAS (G12D) (Homo sapiens, UniProt P01116, G12D).
T1 construct: in-cell western with KRAS G12D antibody after 24 h
The test can be described thus: KRAS (G12D) cellular degradation assay in AsPC-1 cells. The class given is cell-based. Particulars: 24 hours, antibody fluorescence (Odyssey CLX), DC50 half-maximal degradation concentration. In a few lines:
(§1)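 Read-outs were KRAS G12D immunofluorescence against β-actin after 24 h (DC50) and CellTiter Glo luminescence after 6 days (IC50). Compounds were titrated 1:3 from […] to 1.5 nM final on AsPC-1 cells at 37 °C, 5% CO2.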

The subject of a further test is AsPC-1 cells. The test can be described thus: AsPC-1 cell proliferation assay (CellTiter Glo). It counts as cell-based. Particulars: 6 days. In a few lines: as §1

A value given as a limit tells only on which side of the number the result lay.

T1 sequence (P01116 1-188 isoform P01116-2 G12D): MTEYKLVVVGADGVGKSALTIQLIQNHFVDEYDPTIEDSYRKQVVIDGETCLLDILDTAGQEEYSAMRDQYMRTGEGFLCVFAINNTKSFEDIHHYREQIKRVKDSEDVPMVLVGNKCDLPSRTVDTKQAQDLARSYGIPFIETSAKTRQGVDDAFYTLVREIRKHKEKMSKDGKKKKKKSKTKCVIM

For orientation: DC50 means the concentration at which degradation of the target reaches its halfway point. A higher DC50 goes with a less potent degrader. As a reminder, the IC50 is the concentration that inhibits the measured activity by half. As to `CO[C@@H](C)COc1nc(N2C[C@@H]3C[C@H]2CN3)c2cc(C3CC3)c(-c3c(C)c(F)c(F)c4[nH]ncc34)c(OCc3ccc(-c4cn([C@H](C(=O)N5C[C@H](O)C[C@H]5C(=O)N[C@H](c5ccc(-c6scnc6C)cc5)[C@H](C)O)C(C)C)nn4)cc3)c2n1` [Example 90, (2S,4R)-1-((2S)-2-(4-(4-(((4-((1S,4S)-2,5-diazabicyclo[2.2.1]heptan-2-yl)-6-cyclopropyl-7-(6,7-difluoro-5-methyl-1H-indazol-4-yl)-2-((S)-2-methoxypropoxy)quinazolin-8-yl)oxy)methyl)phenyl)-1H-1,2,3-triazol-1-yl)-3-methylbutanoyl)-4-hydroxy-N-((1R,2S)-2-hydroxy-1-(4-(4-methylthiazol-5-yl)phenyl)propyl)pyrrolidine-2-carboxamide], the DC50 at KRAS (G12D) was below 10 nM. The compound also registered a 50% inhibitory concentration (IC50) in the test with AsPC-1 cells (Homo sapiens, ASPC1, 144 h) below 10 nM.

Turning to `CO[C@@H](C)COc1nc(N2C[C@@H]3C[C@H]2CN3)c2cc(C3CC3)c(-c3c(C)c(F)cc4[nH]ncc34)c(OCc3ccc(-c4cn([C@H](C(=O)N5C[C@H](O)C[C@H]5C(=O)N[C@H](C#Cc5ccc6ncsc6c5)CO)C(C)C)nn4)cc3)c2n1` [Example 54, (2S,4R)-1-((2S)-2-(4-(4-(((4-((1S,4S)-2,5-diazabicyclo[2.2.1]heptan-2-yl)-6-cyclopropyl-7-(6-fluoro-5-methyl-1H-indazol-4-yl)-2-((S)-2-methoxypropoxy)quinazolin-8-yl)oxy)methyl)phenyl)-1H-1,2,3-triazol-1-yl)-3-methylbutanoyl)-N—((R)-4-(benzo[d]thiazol-6-yl)-1-hydroxybut-3-yn-2-yl)-4-hydroxypyrrolidine-2-carboxamide], the 50% degradation concentration (DC50) at KRAS (G12D) lay in the range of 10 to 100 nM. In the test on AsPC-1 cells (Homo sapiens, ASPC1, 144 h), this compound gave an IC50 below 10 nM.

On KRAS (G12D), `CO[C@@H](C)COc1nc(N2C[C@@H]3C[C@H]2CN3)c2cc(C3CC3)c(-c3c(C)c(F)cc4[nH]ncc34)c(OCc3ccc(-c4cn([C@H](C(=O)N5C[C@H](O)C[C@H]5C(=O)N[C@H](C#Cc5ccc6nc(N)sc6c5)CO)C(C)C)nn4)cc3)c2n1` [Example 111, (2S,4R)-1-((2S)-2-(4-(4-(((4-((1S,4S)-2,5-diazabicyclo[2.2.1]heptan-2-yl)-6-cyclopropyl-7-(6-fluoro-5-methyl-1H-indazol-4-yl)-2-((S)-2-methoxypropoxy)quinazolin-8-yl)oxy)methyl)phenyl)-1H-1,2,3-triazol-1-yl)-3-methylbutanoyl)-N—((R)-4-(2-aminobenzo[d]thiazol-6-yl)-1-hydroxybut-3-yn-2-yl)-4-hydroxypyrrolidine-2-carboxamide] had a DC50 below 10 nM. This compound registered an IC50 in the test with AsPC-1 cells (Homo sapiens, ASPC1, 144 h) below 10 nM.

Turning to `CCn1nccc1-c1ccc([C@@H](NC(=O)[C@@H]2C[C@@H](O)CN2C(=O)[C@H](C(C)C)n2cc(-c3ccc(COc4c(-c5c(C)c(F)cc6[nH]ncc56)c(C5CCC5)cc5c(N6C[C@@H]7C[C@H]6CN7)nc(OC[C@H](C)OC)nc45)cc3)nn2)[C@@H](C)O)cc1` [Example 128, (2S,4R)-1-((2S)-2-(4-(4-(((4-((1S,4S)-2,5-diazabicyclo[2.2.1]heptan-2-yl)-6-cyclobutyl-7-(6-fluoro-5-methyl-1H-indazol-4-yl)-2-((S)-2-methoxypropoxy)quinazolin-8-yl)oxy)methyl)phenyl)-1H-1,2,3-triazol-1-yl)-3-methylbutanoyl)-N-((1R,2R)-1-(4-(1-ethyl-1H-pyrazol-5-yl)phenyl)-2-hydroxypropyl)-4-hydroxypyrrolidine-2-carboxamide], the DC50 on KRAS (G12D) was in the range of 10 to 100 nM. Also, the concentration for half-maximal inhibition (IC50) in the test with AsPC-1 cells (Homo sapiens, ASPC1, 144 h) was below 10 nM.

For `CCn1nccc1-c1ccc([C@H](CO)NC(=O)[C@@H]2C[C@@H](O)CN2C(=O)[C@H](C(C)C)n2cc(-c3ccc(COc4c(-c5c(C)c(F)cc6[nH]ncc56)c(C5CC5)cc5c(N6C[C@@H]7C[C@H]6CN7)nc(OC[C@H](C)OC)nc45)c4c3CC4)nn2)cc1` [Example 31, (2S,4R)-1-((2S)-2-(4-(5-(((4-((1S,4S)-2,5-diazabicyclo[2.2.1]heptan-2-yl)-6-cyclopropyl-7-(6-fluoro-5-methyl-1H-indazol-4-yl)-2-((S)-2-methoxypropoxy)quinazolin-8-yl)oxy)methyl)bicyclo[4.2.0]octa-1,3,5-trien-2-yl)-1H-1,2,3-triazol-1-yl)-3-methylbutanoyl)-N—((R)-1-(4-(1-ethyl-1H-pyrazol-5-yl)phenyl)-2-hydroxyethyl)-4-hydroxypyrrolidine-2-carboxamide], the DC50 at KRAS (G12D) lay within 10 to 100 nM. Also, the IC50 in the test with AsPC-1 cells (Homo sapiens, ASPC1, 144 h) is below 10 nM.

As to `CCn1nccc1-c1ccc([C@@H](NC(=O)[C@@H]2C[C@@H](O)CN2C(=O)[C@H](C(C)C)n2cc(-c3ccc(COc4c(-c5c(C)c(F)cc6[nH]ncc56)c(C5CC5)cc5c(N6C[C@@H]7C[C@H]6CN7)nc(OC6CC7(CCOCC7)C6)nc45)cc3)nn2)[C@H](C)O)cc1` [Example 113, (2S,4R)-1-((2S)-2-(4-(4-(((2-((7-oxaspiro[3.5]nonan-2-yl)oxy)-4-((15,45)-2,5-diazabicyclo[2.2.1]heptan-2-yl)-6-cyclopropyl-7-(6-fluoro-5-methyl-1H-indazol-4-yl)quinazolin-8-yl)oxy)methyl)phenyl)-1H-1,2,3-triazol-1-yl)-3-methylbutanoyl)-N-((1R,2S)-1-(4-(1-ethyl-1H-pyrazol-5-yl)phenyl)-2-hydroxypropyl)-4-hydroxypyrrolidine-2-carboxamide], the DC50 at KRAS (G12D) was below 10 nM. The compound further yielded a half-inhibitory concentration (IC50) in the test on AsPC-1 cells (Homo sapiens, ASPC1, 144 h) below 10 nM.

`CO[C@H]1C[C@H](Oc2nc(N(C)[C@H]3CCNC3)c3cc(C4CC4)c(-c4c(C)c(F)cc5[nH]ncc45)c(OCc4ccc(-c5cn([C@H](C(=O)N6C[C@H](O)C[C@H]6C(=O)N[C@@H](CO)c6ccc(-c7scnc7C)cc6)C(C)C)nn5)cc4)c3n2)C1` [Example 166, (2S,4R)-1-((2S)-2-(4-(4-(((6-cyclopropyl-7-(6-fluoro-5-methyl-1H-indazol-4-yl)-2-((1r,3S)-3-methoxycyclobutoxy)-4-(methyl((S)-pyrrolidin-3-yl)amino)quinazolin-8-yl)oxy)methyl)phenyl)-1H-1,2,3-triazol-1-yl)-3-methylbutanoyl)-4-hydroxy-N—((R)-2-hydroxy-1-(4-(4-methylthiazol-5-yl)phenyl)ethyl)pyrrolidine-2-carboxamide] came in with a half-maximal degradation concentration (DC50) at KRAS (G12D) below 10 nM. The compound also yielded an IC50 with AsPC-1 cells (Homo sapiens, ASPC1, 144 h) below 10 nM.

With `CO[C@H]1C[C@@H](Oc2nc(N3C[C@@H]4C[C@H]3CN4)c3cc(C4CC4)c(-c4c(C)c(F)cc5[nH]ncc45)c(OCc4ccc(-c5cn([C@H](C(=O)N6C[C@H](O)C[C@H]6C(=O)N[C@H](c6ccc(-c7scnc7C)cc6)[C@H](C)O)C(C)C)nn5)cc4)c3n2)C1` [Example 135, (2S,4R)-1-((2S)-2-(4-(4-(((4-((1S,4S)-2,5-diazabicyclo[2.2.1]heptan-2-yl)-6-cyclopropyl-7-(6-fluoro-5-methyl-1H-indazol-4-yl)-2-((1s,3R)-3-methoxycyclobutoxy)quinazolin-8-yl)oxy)methyl)phenyl)-1H-1,2,3-triazol-1-yl)-3-methylbutanoyl)-4-hydroxy-N-((1R,2S)-2-hydroxy-1-(4-(4-methylthiazol-5-yl)phenyl)propyl)purrolidine-2-carboxcamide], the 50% degradation concentration (DC50) on KRAS (G12D) is below 10 nM. In the test on AsPC-1 cells (Homo sapiens, ASPC1, 144 h), the concentration for half-maximal inhibition (IC50) was below 10 nM.

`CO[C@@H](C)COc1nc(N2C[C@H]3C[C@@H]2CN3)c2cc(C3CC3)c(-c3c(C)c(F)cc4[nH]ncc34)c(OCc3ccc(-c4cn([C@H](C(=O)N5C[C@H](O)C[C@H]5C(=O)N[C@@H](C)c5ccc(-c6scnc6C)cc5)C(C)C)nn4)cc3)c2n1` (single isomer, unassigned) [Example 3B] showed a half-maximal degradation concentration (DC50) on KRAS (G12D) above 1000 nM. For the same compound, the 50% inhibitory concentration (IC50) in the test with AsPC-1 cells was above 1000 nM.

Take `CO[C@@H](C)COc1nc(N2C[C@@H]3C[C@H]2CN3)c2cc(C3CC3)c(-c3c(C)c(F)cc4[nH]ncc34)c(OCc3ccc(-c4cn([C@H](C(=O)N5C[C@H](O)C[C@H]5C(=O)N[C@H](C#Cc5c(F)cccc5F)CO)C(C)C)nn4)cc3)c2n1` [Example 42, (2S,4R)-1-((2S)-2-(4-(4-(((4-((1S,4S)-2,5-diazabicyclo[2.2.1]heptan-2-yl)-6-cyclopropyl-7-(6-fluoro-5-methyl-1H-indazol-4-yl)-2-((S)-2-methoxypropoxy)quinazolin-8-yl)oxy)methyl)phenyl)-1H-1,2,3-triazol-1-yl)-3-methylbutanoyl)-N—((R)-4-(2,6-difluorophenyl)-1-hydroxybut-3-yn-2-yl)-4-hydroxypyrrolidine-2-carboxamide]: the DC50 at KRAS (G12D) lay within 10 to 100 nM. The compound also displayed an IC50 with AsPC-1 cells (Homo sapiens, ASPC1, 144 h) of 10 to 100 nM.

`CCn1nccc1-c1ccc([C@@H](NC(=O)[C@@H]2C[C@@H](O)CN2C(=O)[C@H](C(C)C)n2cc(-c3ccc(COc4c(-c5c(C)c(F)cc6[nH]ncc56)c(C5CC5)cc5c(N6C[C@@H]7C[C@H]6CN7)nc(OC6CCC7(CC6)COC7)nc45)cc3)nn2)[C@H](C)O)cc1` [Example 87, (2S,4R)-1-((2S)-2-(4-(4-(((2-((2-oxaspiro[3.5]nonan-7-yl)oxy)-4-((1S,4S)-2,5-diazabicyclo[2.2.1]heptan-2-yl)-6-cyclopropyl-7-(6-fluoro-5-methyl-1H-indazol-4-yl)quinazolin-8-yl)oxy)methyl)phenyl)-1H-1,2,3-triazol-1-yl)-3-methylbutanoyl)-N-((1R,2S)-1-(4-(1-ethyl-1H-pyrazol-5-yl)phenyl)-2-hydroxypropyl)-4-hydroxypyrrolidine-2-carboxamide] displayed a DC50 at KRAS (G12D) below 10 nM. This compound showed a concentration for half-maximal inhibition (IC50) with AsPC-1 cells (Homo sapiens, ASPC1, 144 h) below 10 nM.

Take `CCn1nccc1C12CC(CNC(=O)[C@@H]3C[C@@H](O)CN3C(=O)[C@H](C(C)C)n3cc(-c4ccc(COc5c(-c6c(C)c(F)cc7[nH]ncc67)c(C6CC6)cc6c(N7C[C@@H]8C[C@H]7CN8)nc(OC[C@H](C)OC)nc56)cc4)nn3)(C1)C2` [Example 81, (2S,4R)-1-((2S)-2-(4-(4-(((4-((1S,4S)-2,5-diazabicyclo[2.2.1]heptan-2-yl)-6-cyclopropyl-7-(6-fluoro-5-methyl-1H-indazol-4-yl)-2-((S)-2-methoxypropoxy)quinazolin-8-yl)oxy)methyl)phenyl)-1H-1,2,3-triazol-1-yl)-3-methylbutanoyl)-N-((3-(1-ethyl-1H-pyrazol-5-yl)bicyclo[1.1.1]pentan-1-yl)methyl)-4-hydroxypyrrolidine-2-carboxamide]: the DC50 at KRAS (G12D) was 10 to 100 nM. In the test with AsPC-1 cells (Homo sapiens, ASPC1, 144 h), this compound returned an IC50 of 10 to 100 nM.
